Data taken from US5880146A, “Inhibition of IL-12-induced IFN-γ synthesis by specific bis-phenol compounds as a method of immune modulation” (Fuji ImmunoPharmaceuticals Corporation, priority 1995, dated 1999).

What was measured:
[1] = test system: T cell response of human PBMC to allogenic stimulation by Namalwa cells; assay: Mixed Lymphocyte Reaction (proliferation and IFN-γ secretion); format: cell-based; conditions: 6 days; FIGS. 1-3
Experimental: This reaction measures the T cell response to allogenic stimulation by a mismatch of class II histocompatability antigens. This is triggered through the T cell receptor and activates the T cell to secrete and proliferate in response to endogenous IL-2. IFN-γ is also made in response to this stimulation and accumulates in the culture medium. Compounds are tested for their ability to block the proliferation and response to antigenic stimulation as well as their ability to produce IFN-γ as follows. A human B cell ine expressing class II antigen, Namalwa (American Type Culture Collection), is incubated for 2 hr at 37° C. in RPMI-10 containing mitomycin C (50 μg/ml). These cells are washed four times by centrifugation and resuspension (10^6 cells/ml) in SF-RPMI medium and are added to the wells of 96-well plate (50 μl/well) as stimulators. Mitomycin treatment prevents these cells from proliferating in the assay. Fresh PBMC are prepared as described above in example 1, but are not activated with PHA. Instead they are resuspended at 10^6 cells/ml and 100 μl is added per well. Dilutions of test compounds are added (50 μl/well) to give a final volume of 200 μl and the plates are incubated for 6 days at 37° C. During the last 18 hr, ^3 H-thymidine (DuPont-NEN- 1 μCi/well) is added as a measure of cell proliferation, cultures are collected using a cell harvester (Packard), and scintillation fluid is added prior to counting in a Packard Top Count scintillation counter. A sample of medium is also collected for measurement of IFN-γ production prior to the addition of ^3 H-thymidine for use as a negative control.

[2] = test system: IL-12 induction of IFN-γ in PHA-activated human PBMC; assay: Screening assay for compounds which inhibit IL-12 induction of IFN-γ (ELISA); format: cell-based; conditions: 5 μg/ml, IL-2 25 U/ml + IL-12 0.5 ng/ml, 48 hr, single test, read-out: % INH of IFNγ
Experimental: Human peripheral blood monocytes (PBMC) were obtained from commercial sources as a leukophoresis from a healthy volunteer and were purified by centrifugation on a Ficoll-Hypaque (Pharmacia) gradient (1700 rpm for 20 min). The "buffy" coat containing the PBMC was diluted with serum-free culture medium (SF-RPMI) to a volume of 50 ml and collected by centrifugation at 1500 rpm for 5 min. Cells were resuspended in cell culture medium containing 10% fetal bovine serum (RPMI-10) and phytohemaglutinin (PHA - 10 μg/ml) at a density of 5×10^6 cells/ml and were cultured for 3 days at 37° C. in a humidified CO2 incubator. The PHA-activated cells were collected by centrifugation, washed three times with an equal volume of SF-RPMI and resuspended in fresh RPMI-10 (1×10^6 cells /ml). Aliquots (100 μl) were dispensed into the wells of multiple 96-well plates to give a final cell number of 10^5 per well. Test compounds, dissolved in dimethyl sulfoxide (DMSO) at 1 mg/ml, were first diluted in culture medium to an intermediate concentration of 20 μg/ml and then were added (50 μwell) to a specific well of the plate for each compound. Stimulation medium (50 μl/well) containing 10% serum, IL-2 and IL-12 was added to final concentrations of 25 U/ml and 0.5 ng/ml, respectively. Control wells receive no IL-2 or IL-12 (negative control) or received both interleukins but no test compound (positive control). The plates were incubated for 48 hr at 37° C. in a CO2 incubator at which time aliquots (20 μl) were removed for analysis of IFN-γ concentration by ELISA. A quantitative ELISA was developed by coating 96-well plates with an mouse monoclonal antibody against human IFN-γ, 1 μg/ml in phosphate buffered saline (PBS) (Pestka Biological Laboratories), overnight at 4° C. Unbound antibody was washed off by washing three times with PBS. Non-specific antibody binding was blocked with a solution of 1% bovine serum albumin (BSA) and 1% goat serum in PBS (150 μl/well) which was incubated for 2 hr at 37° C. After washing the blocked plates four times with PBS, test samples and dilutions of the IFN-γ standard are added in a final volume of 100 μl/well. Following an overnight incubation at 4° C., the plates are washed four times with PBS, and a polyclonal rabbit antiserum against human IFN-γ (1/10000 dilution--Petska Biological Laboratories) is added. After an additional incubation for 1 hr at 37° C. and four washes with PBS, a polyclonal donkey anti-rabbit detecting antibody, conjugated to horseradish peroxidase (1/700 dilution--Petska Biological Laboratories) is added for 1 hr at 37° C. The plates are then washed four times with PBS and 100 μl of K-blue substrate E(ILISA Technologies, Neogen Corp.) is added until the color in the wells containing the standard curve is sufficiently developed, at which time 100 μl of "Red-stop" solution (ELISA Technologies) is added. The absorbance of the solution within each well of the plate is then read at 650 nm using an ELISA plate reader (Dynatech MR7000). The amount of IFN-γ is calculated by comparing the optical density of the test sample with a standard curve derived from the dilutions of the control IFN-y. The amount of IFN-γ that is induced in the presence of both IL-2 and IL-12 generally ranges from 1200-2000 pg/ml while the amount produced in the absence of IL-12 is generally less than 50 pg/ml. Experimental data are shown in Table 2 which discloses a) the percent inhibition of IFNγ production, relative to a […], when the cells have been treated with a bis-compound at a final concentration of 5 μg/ml of the listed bis-compound (%INH or IFNγ) and b) the percent of cells which are viable after the treatment with 5 μg/ml of the various bis-compounds, determined by adding MTS to the media (% Viability). MTS is a chemical chromophore that is metabolized in the mitochondria of viable cells to produce a color which increases in intensity in proportion to the numbers of viable cells. […]

[3] = Cell viability (MTS) after treatment with bis-compound; format: cell-based; conditions: human, pha-activated pbmc, 5 μg/ml
Experimental: Human peripheral blood monocytes (PBMC) were obtained from commercial sources as a leukophoresis from a healthy volunteer and were purified by centrifugation on a Ficoll-Hypaque (Pharmacia) gradient (1700 rpm for 20 min). The "buffy" coat containing the PBMC was diluted with serum-free culture medium (SF-RPMI) to a volume of 50 ml and collected by centrifugation at 1500 rpm for 5 min. Cells were resuspended in cell culture medium containing 10% fetal bovine serum (RPMI-10) and phytohemaglutinin (PHA - 10 μg/ml) at a density of 5×10^6 cells/ml and were cultured for 3 days at 37° C. in a humidified CO2 incubator. The PHA-activated cells were collected by centrifugation, washed three times with an equal volume of SF-RPMI and resuspended in fresh RPMI-10 (1×10^6 cells /ml). Aliquots (100 μl) were dispensed into the wells of multiple 96-well plates to give a final cell number of 10^5 per well. Test compounds, dissolved in dimethyl sulfoxide (DMSO) at 1 mg/ml, were first diluted in culture medium to an intermediate concentration of 20 μg/ml and then were added (50 μwell) to a specific well of the plate for each compound. Stimulation medium (50 μl/well) containing 10% serum, IL-2 and IL-12 was added to final concentrations of 25 U/ml and 0.5 ng/ml, respectively. Control wells receive no IL-2 or IL-12 (negative control) or received both interleukins but no test compound (positive control). The plates were incubated for 48 hr at 37° C. in a CO2 incubator at which time aliquots (20 μl) were removed for analysis of IFN-γ concentration by ELISA. A quantitative ELISA was developed by coating 96-well plates with an mouse monoclonal antibody against human IFN-γ, 1 μg/ml in phosphate buffered saline (PBS) (Pestka Biological Laboratories), overnight at 4° C. Unbound antibody was washed off by washing three times with PBS. Non-specific antibody binding was blocked with a solution of 1% bovine serum albumin (BSA) and 1% goat serum in PBS (150 μl/well) which was incubated for 2 hr at 37° C. After washing the blocked plates four times with PBS, test samples and dilutions of the IFN-γ standard are added in a final volume of 100 μl/well. Following an overnight incubation at 4° C., the plates are washed four times with PBS, and a polyclonal rabbit antiserum against human IFN-γ (1/10000 dilution--Petska Biological Laboratories) is added. After an additional incubation for 1 hr at 37° C. and four washes with PBS, a polyclonal donkey anti-rabbit detecting antibody, conjugated to horseradish peroxidase (1/700 dilution--Petska Biological Laboratories) is added for 1 hr at 37° C. The plates are then washed four times with PBS and 100 μl of K-blue substrate E(ILISA Technologies, Neogen Corp.) is added until the color in the wells containing the standard curve is sufficiently developed, at which time 100 μl of "Red-stop" solution (ELISA Technologies) is added. The absorbance of the solution within each well of the plate is then read at 650 nm using an ELISA plate reader (Dynatech MR7000). The amount of IFN-γ is calculated by comparing the optical density of the test sample with a standard curve derived from the dilutions of the control IFN-y. […] MTS is a chemical chromophore that is metabolized in the mitochondria of viable cells to produce a color which increases in intensity in proportion to the numbers of viable cells. The absorbance of the cell culture can be compared to control cultures in order to determine the percent viability.

[4] = Toxicity of bis-compounds after single systemic dose; format: in vivo; conditions: mouse, in vivo, 16% cremaphor, conc. sol. 10 mg/ml, single dose
mice = assay: as above; format: in vivo; conditions: 16% cremaphor, 10 mg/ml

## Nc1nc2nn[nH]c2c(=O)[nH]1 [Compound 8-azaguanine, 8-azaguanine, reference compound]
[1]
  inhibition of IFN-γ secretion versus cell proliferation (in words): general immunosuppressant

## CCCCC(C)(c1cc(C)c(O)c(C)c1)c1cc(C)c(O)c(C)c1 [Compound 52782]
[2]
  inhibition at 5 µg/mL: 102%
[3]
  viability: 116%
[4]; IV, 20% DMSO
  LD50: < 80 mg/kg
mice; 80 mg/kg IV, 20% DMSO
  Results (Dead/Alive): Dead

## CCC(C)(c1ccc(O)c(C)c1)c1ccc(O)c(C)c1 [Compound 54003]
[2]
  inhibition at 5 µg/mL: 101%
[3]
  viability: 85%
[4]; iv, 20% DMSO
  LD50: 100 to 150 mg/kg
mice; 100 mg/kg IV, 20% DMSO
  Results (Dead/Alive): Alive
mice; 150 mg/kg IV, 20% DMSO
  Results (Dead/Alive): Dead

## CCCCCCC(c1cc(C)cc(C)c1O)c1cc(C)cc(C)c1O [Compound 54015]
[2]
  inhibition at 5 µg/mL: 96%
[3]
  viability: 34%
[4]; iv, 20% DMSO
  LD50: > 80 mg/kg
mice; 80 mg/kg IV, 20% DMSO
  Results (Dead/Alive): Alive

## Cc1cc(C(CCc2ccccc2)c2cc(C)cc(C(C)(C)C)c2O)c(O)c(C(C)(C)C)c1 [Compound 54016]
[2]
  inhibition at 5 µg/mL: 26%
[3]
  viability: 98%
[4]; iv, 20% DMSO
  LD50: > 150 mg/kg
mice; 100 mg/kg IV, 20% DMSO
  Results (Dead/Alive): Alive
mice; 150 mg/kg IV, 20% DMSO
  Results (Dead/Alive): Alive

## CCCCCC(c1cc(C)cc(C(C)(C)C)c1O)c1cc(C)cc(C(C)(C)C)c1O [Compound 54018]
[2]
  inhibition at 5 µg/mL: 55%
[3]
  viability: 92%
[4]; IV, 20% EGME
  LD50: < 100 mg/kg
mice; 100 mg/kg IV, 20% EGME
  Results (Dead/Alive): Dead
mice; 150 mg/kg IV, 20% EGME
  Results (Dead/Alive): Dead

## CCCCCC(c1cc(C)cc(C)c1O)c1cc(C)cc(C)c1O [Compound 54019]
[2]
  inhibition at 5 µg/mL: 77%
[3]
  viability: 101%
[4]; iv, 20% DMSO
  LD50: 100 to 150 mg/kg
mice; 100 mg/kg IV, 20% DMSO
  Results (Dead/Alive): Alive
mice; 150 mg/kg IV, 20% DMSO
  Results (Dead/Alive): Dead

## CCCCC(c1cc(C)cc(C(C)(C)C)c1O)c1cc(C)cc(C(C)(C)C)c1O [Compound 54020]
[2]
  inhibition at 5 µg/mL: 69%
[3]
  viability: 95%
[4]; iv, 20% EGME
  LD50: 100 to 150 mg/kg
mice; 100 mg/kg IV, 20% EGME
  Results (Dead/Alive): Alive
mice; 150 mg/kg IV, 20% EGME
  Results (Dead/Alive): Dead

## CCCC(c1cc(C)c(O)c(C)c1)c1cc(C)c(O)c(C)c1 [Compound 54044]
[2]
  inhibition at 5 µg/mL: 98%
[3]
  viability: 92%
[4]; iv, 20% DMSO
  LD50: > 150 mg/kg
mice; 100 mg/kg IV, 20% DMSO
  Results (Dead/Alive): Alive
mice; 150 mg/kg IV, 20% DMSO
  Results (Dead/Alive): Alive

## CCCC(C)(c1cc(C)c(O)c(C)c1)c1cc(C)c(O)c(C)c1 [Compound 54064]
[2]
  inhibition at 5 µg/mL: 79%
[3]
  viability: 112%
[4]; iv, 20% DMSO
  LD50: 100 to 150 mg/kg
mice; 100 mg/kg IV, 20% DMSO
  Results (Dead/Alive): Alive
mice; 150 mg/kg IV, 20% DMSO
  Results (Dead/Alive): Dead
